Assay results published in PMC7318222, “A Family of Water‐Immiscible, Dipolar Aprotic, Diamide Solvents from Succinic Acid” (Chemsuschem, 2020).

Tests used:
[1] = shake flask; GC analysis of both layers with diglyme internal standard (SI); details: not told
PPARα = molecular target: T1, PPARα (Homo sapiens, UniProt Q07869); assay: PPARα CALUX reporter gene assay; assay type: cell-based; set-up: key: –: no effect observed up to the highest test concentration; details: PC10, 24 h exposure
T1 construct: expression construct for the full-length human receptor under investigation; expressed in transfected cells; host or cells: human U2-OS cells (ATCC HTB-96), stably transfected
T1 sequence (Q07869 1-468): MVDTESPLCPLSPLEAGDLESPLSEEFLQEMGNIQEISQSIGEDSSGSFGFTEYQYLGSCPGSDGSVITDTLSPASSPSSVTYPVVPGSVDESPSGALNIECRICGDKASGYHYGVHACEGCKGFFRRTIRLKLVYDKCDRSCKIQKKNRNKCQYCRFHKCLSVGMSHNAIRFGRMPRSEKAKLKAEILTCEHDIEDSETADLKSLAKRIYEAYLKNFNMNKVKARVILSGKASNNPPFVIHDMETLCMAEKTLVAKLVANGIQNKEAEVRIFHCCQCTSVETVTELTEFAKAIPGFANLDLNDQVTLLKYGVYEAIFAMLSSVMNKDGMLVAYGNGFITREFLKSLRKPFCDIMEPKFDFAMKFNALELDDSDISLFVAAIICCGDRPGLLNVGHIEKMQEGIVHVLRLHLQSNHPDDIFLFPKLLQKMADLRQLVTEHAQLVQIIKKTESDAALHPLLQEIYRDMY
Excerpt: Succinyl chloride (2 M soln. in dichloromethane), N-methylbutylamine 90%, N-ethylbutylamine 95%, Dibutylamine 99% were purchased from TCI chemicals. K60 silica was purchased from Merck chemicals. Succinic acid ≥99.0%, N-methylpyrrolidinone 99.0%, 1-bromooctane ≥97.0%, 1-methylimidazole 99.0%, iodobenzene 99.9%, methylacrylate 99.9%, palladium(II) acetate ≥99.9% trace metals basis, triethylamine ≥99.0%, trimesic acid 95%, copper(II) nitrate trihydrate ≥99.0%, 2-methylimidazole 99.0%, zinc(II) nitrate hexahydrate ≥99.0%, para-cymene 99.0%, 1,4-dioxane 99.8% (anhydrous), 4-nitroaniline ≥99.0%, 1-octanol ≥99.0%, diglyme ≥99.0%, DMSO-d6 (99.8% D) and chloroform-d (99.8% D) were purchased from Sigma-Aldrich. Toluene ≥99.0%, hexane ≥99.5%, DCM ≥99.5%, chloroform ≥99.5%, DMSO ≥99.0% were purchased from VWR. N,N-diethyl-4-nitroaniline ≥98.0% was purchased from Alfa Aeser. Cyrene was supplied by Circa group. N-butylpyrrolidinone was supplied by Eastman chemicals. N,N-dimethylformamide 99.9% and N,N-dimethylacetamide 99.9% were purchased from Fischer. The flakes of Ultrason® E3020 P Polyarylethersulfone of 55,000 Da were obtained from INGE.BASF, Germany. The CALUX cell lines have been described previously.[1] They are based on human U2-OS cells (ATCC, HTB-96) stably transfected with an expression construct for the full-length human receptor under investigation, and a reporter construct consisting of multimerized responsive elements for the cognate receptor coupled to a minimal promoter element (TATA) and a luciferase gene. Cells were maintained as described previously,[2] using cell culture media and supplements from Fisher Scientific as described in the experimental procedures section. […]
In vitro reporter gene assays
The automated CALUX assays were carried out similarly as described earlier,[12] with some adaptations. In brief, the assay was performed in CO2 independent medium (Fisher Scientific, […]
supplement (Fisher Scientific, 11574466), 10 U/mL penicillin and 10 µg/mL streptomycin. A cell suspension in assay medium was made of 1 × 10^5cells/mL, and white 384-wells plates were seeded with 30 µl cell suspension/well. After 24 h, exposure medium was prepared. A dilution series in 0.5log unit increments of each test compound (in DMSO) was added to a 96-wells plate containing assay medium (2% v/v). Of this exposure mixture, 30 µl was added to the assay plates containing the CALUX cells, resulting in a final DMSO concentration of 1%. Additionally, DMSO blanks and a full dose response curve of the relevant reference compound were included on each plate. All samples were tested in triplicate. The preparation of the compound dilution series as well as the exposure of the cells were performed on a Hamilton StarLET liquid handling robot coupled to a Cytomat incubator.
Directly after exposure, plates were sealed with non-breathing plate seals (Plate sealer, easy seal transparent; Greiner-Bio-One, 676001). After 24 h the exposure medium was removed using an EL406 washer-dispenser (BioTek) and 10 µl/well triton lysisbuffer was added by the EL406.
Subsequently, the luciferase signal was measured in a luminometer (InfinitePro coupled to a Connect Stacker, both TECAN). In order to be able to detect receptor antagonism, several assays were also performed in antagonistic mode. […]
The luminometer data was analysed as follows; the average of the triplicate wells was determined, and the average blank (DMSO) value was subtracted. […]

Row | Structure (SMILES) | log partition 1-octanol / water [1] | LEC PPARα (PPARα)
1 | CCCCN1CCCC1=O [NBP, N‐Butylpyrrolidinone, reference compound] | 0.99 log10 of concentration ratio (GC peak-area ratio) | –
2 | CCCCN(CCCC)C(=O)CCC(=O)N(CCCC)CCCC [TBSA, N,N,N′,N′‐tetrabutylsuccindiamide] | 3.77 log10 of concentration ratio (GC peak-area ratio) | –
3 | CN1CCCC1=O [NMP, N‐methyl‐2‐pyrrolidone, reference compound] |  | –
4 | CCCCN(CC)C(=O)CCC(=O)N(CC)CCCC [EBSA, N,N′‐diethyl‐N,N′‐dibutylsuccindiamide] | 2.72 log10 of concentration ratio (GC peak-area ratio) | –
5 | CCCCN(C)C(=O)CCC(=O)N(C)CCCC [MBSA, N,N′‐dimethyl‐N,N′‐dibutylsuccindiamide] | 1.65 log10 of concentration ratio (GC peak-area ratio) | –
